Laboratory results as given in patent US7781183B2 (priority 2003, dated 2010).
“Also recorded” adds a separate entry of the source.

Tests used:
[1] = biological target: anthrax lethal factor protease (Bacillus anthracis, UniProt P15917); assay: biochemical; type: biochemical
[2] = tested on: J774A.1 cells; type: cell-based

Chain of anthrax lethal factor protease (P15917 34-809 limits assumed): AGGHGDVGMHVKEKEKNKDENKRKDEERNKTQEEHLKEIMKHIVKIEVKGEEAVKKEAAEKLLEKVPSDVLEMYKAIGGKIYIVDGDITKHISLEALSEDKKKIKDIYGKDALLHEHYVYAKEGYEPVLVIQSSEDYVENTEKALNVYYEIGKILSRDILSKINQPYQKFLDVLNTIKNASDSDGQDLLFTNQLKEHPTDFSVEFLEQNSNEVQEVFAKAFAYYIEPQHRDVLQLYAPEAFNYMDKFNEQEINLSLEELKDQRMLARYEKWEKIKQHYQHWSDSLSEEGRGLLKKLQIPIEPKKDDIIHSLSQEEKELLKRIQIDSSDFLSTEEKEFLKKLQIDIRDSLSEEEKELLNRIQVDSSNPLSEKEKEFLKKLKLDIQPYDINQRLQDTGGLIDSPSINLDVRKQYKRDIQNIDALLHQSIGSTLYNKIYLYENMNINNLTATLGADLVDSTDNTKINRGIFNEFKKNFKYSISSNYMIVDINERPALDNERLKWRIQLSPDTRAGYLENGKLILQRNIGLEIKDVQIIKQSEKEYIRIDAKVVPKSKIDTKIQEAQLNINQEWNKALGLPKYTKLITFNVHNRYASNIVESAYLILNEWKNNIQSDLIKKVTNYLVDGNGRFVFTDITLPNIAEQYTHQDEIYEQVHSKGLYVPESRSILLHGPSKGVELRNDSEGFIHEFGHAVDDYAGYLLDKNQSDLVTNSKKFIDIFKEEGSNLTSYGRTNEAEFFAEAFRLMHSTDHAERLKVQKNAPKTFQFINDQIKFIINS

## Cc1cc(N)c2cc(NC(=O)Nc3ccc4nc(C)cc(N)c4c3)ccc2n1 [NSC 12155]
[1]
  Inhibition type: competitive inhibition
  Ki: 0.5 µM
  Km(app) with inhibitor concentration: increased
  effect on the Vmax: no effect
  inhibition at 20 µM: 95%
  inhibition of LF activity (in words): strong inhibition
[2]
  protection (in words): lower protection; also recorded: some protection

## N=C(N)c1ccc(Oc2ccc(-c3cc4ccc(C(=N)N)cc4[nH]3)cc2)cc1 [NSC 240898]
[1]
  Percent Inhibition: 72

## N=C(N)c1ccc2[nH]c(/C=C/c3cc4cc(C(=N)N)ccc4o3)cc2c1 [NSC 290107]
[1]
  Percent Inhibition: 85

## N=C(N)c1ccc2cc(/C=C/c3cc4ccc(C(=N)N)cc4o3)[nH]c2c1 [NSC 294200]
[1]
  Percent Inhibition: 92

## C(=C\c1cc2ccc(C3=NCCN3)cc2o1)/c1cc2cc(C3=NCCN3)ccc2[nH]1 [NSC 294201]
[1]
  Percent Inhibition: 88

## N=C(N)c1ccc2[nH]c(/C=C/c3cc4ccc(C(=N)N)cc4o3)cc2c1 [NSC 294203]
[1]
  Percent Inhibition: 92

## C(=C\c1cc2ccc(C3=NCCN3)cc2o1)/c1cc2cc(C3=NCCN3)ccc2[nH]1 [NSC 294204]
[1]
  Percent Inhibition: 84

## O=C(Nc1ccc(C2=NCCN2)cc1)c1cc2ccc(C3=NCCN3)cc2[nH]1 [NSC 294206]
[1]
  Percent Inhibition: 56

## C(=C\c1cc2ccc(C3=NCCN3)cc2o1)/c1cc2ccc(C3=NCCN3)cc2o1 [NSC 294494]
[1]
  Percent Inhibition: 29

## N=C(N)c1ccc(-c2[nH]c3cc(C(=N)N)ccc3c2N)cc1 [NSC 300509]
[1]
  Percent Inhibition: 46

## C/C(=C\c1ccc(/C=C/c2cc3ccc(C4=NCCN4)cc3[nH]2)[nH]1)C1=NCCN1 [NSC 317880]
[1]
  Percent Inhibition: 93

## c1cc2cc(-c3ccc(-c4cc5ccc(C6=NCCN6)cc5[nH]4)cc3)[nH]c2cc1C1=NCCN1 [NSC 317881]
[1]
  Percent Inhibition: 97

## N=C(N)c1ccc(/C=C/c2cc3cc(C(=N)N)ccc3[nH]2)cc1 [NSC 317884]
[1]
  Percent Inhibition: 95

## N=C(N)c1ccc(/C=C/c2cc3ccc(C(=N)N)cc3[nH]2)cc1 [NSC 317886]
[1]
  Percent Inhibition: 93

## N=C(N)N/N=C/c1ccc(-c2cc3ccc(/C=N/NC(=N)N)cc3s2)cc1 [NSC 341909]
[1]
  Percent Inhibition: 90

## c1cc(-c2[nH]c3cc(C4=NCCN4)ccc3c2-c2cc3ccc(C4=NCCN4)cc3[nH]2)ccc1C1=NCCN1 [NSC 341911]
[1]
  Percent Inhibition: 64

## CCOc1ccc2c(N)c3ccc(/N=N/c4ccc(N)nc4N)cc3nc2c1 [NSC 354961]
[1]
  Percent Inhibition: 95

## Nc1ccc(/N=N/c2ccc3cc4ccc(/N=N/c5ccc(N)nc5N)cc4nc3c2)c(N)n1 [NSC 354962]
[1]
  Percent Inhibition: 40

## Nc1c(/C=C/c2cc3cc(C4=NCCN4)ccc3o2)[nH]c2cc(C3=NCCN3)ccc12 [NSC 357756]
[1]
  Inhibition type: competitive inhibition
  Ki: 4.9 ± 1.7 µM
  Km(app) with inhibitor concentration: increased
  effect on the Vmax: no effect
  inhibition at 20 µM: 90%
[2]
  protection: about 96%
  protection (in words): some protection

## N=C(N)c1ccc(N=Nc2cc(N=Nc3ccc(C(=N)N)cc3)c(O)cc2O)cc1 [NSC 359465]
[1]
  inhibition at 20 µM: 48%

## c1cc2cc(-c3ccc4cc(-c5ccc6oc(C7=NCCN7)cc6c5)[nH]c4c3)[nH]c2cc1C1=NCCN1 [NSC 369718]
[1]
  inhibition at 20 µM: 90%
[2]
  protection (in words): lower protection; also recorded: some protection

## c1cc(-c2nc3cc(-c4nc5cc(C6=NCCN6)ccc5[nH]4)ccc3[nH]2)ccc1C1=NCCN1 [NSC 369721]
[1]
  Inhibition type: competitive inhibition
  Ki: 4.2 ± 0.21 µM
  Km(app) with inhibitor concentration: increased
  effect on the Vmax: no effect
  inhibition at 20 µM: 90%
[2]
  protection (in words): ineffective

## c1cc(C2=NCCN2)ccc1Nc1ccc(-c2cc3ccc(C4=NCCN4)cc3[nH]2)cc1 [NSC 377362]
[1]
  inhibition at 20 µM: 33%
